Three compounds from patent US6465636B1, “Pathogen-inducible promoter” (Zeneca Mogen B.V., priority 1998, dated 2002) can be followed below.

Like-named read-outs stand apart in the source and are kept apart here.

The test system of this assay is ms59 messenger. Put plainly: Induction of ms59 messengers in sunflower leaves, transcript levels by competitive RT-PCR. As to conditions: Helianthus annuus, read-out: fold induction of the ms59 messenger relative to the control. The class given is in vivo, Helianthus annuus cv Zebulon. The method, then:
Leaves of 7 to 8 weeks old Sunflower plants (Helianthus annuus cv Zebulon) were induced by spraying 5 times with 5 mM salicylic acid (SA), spraying once with 1 mM salicylic acid, once with 0.1 mm jasmonic acid (JA), once with 1 mM ACC (1-aminocyclopropane-1-carboxylic acid, a precursor of the plant hormone ethylene) or wounding. Leaf samples were harvested from induced leaves after 24 hours (1 mM SA, 0.1 mM JA, 1 mM ACC and wounding) and after 5 days (5 mM SA). Control samples were taken at 24 hours after induction in non-induced plants.
Total RNA was extracted from 10 g leaf material using a hot phenol method and purified using the Qiagen RNA buffer set and tip-100 columns (Qiagen GmbH, Germany). Contaminating DNA was degraded using a Dnase I (Gibco BRL) treatment.
cDNA was prepared using 1 μg total RNA, 1 μl oligo(dT)12-18 primers (500 μg/ml, Gibco BRL) and 200 units of Superscript II RT RNAse H reverse transcriptase (Gibco BRL) as described by the manufacturer.
Transcript levels of ms59 were determined using the competitive RT-PCR technology.
PCR MIMIC dilutions were made in a range of […] to 0.01 ag/μl in H2O containing 0.2 μg/μl glycogen as a carrier.
The cDNA samples were analysed in a competitive RT-PCR. Therefore 2 µl of the samples was combined in a 0.5 ml tube with 1 μl diluted PCR MIMIC (amounts; 0.1 pg, 10 fg, 1.0 fg, 0.1 fg, 10 ag and 1.0 ag). Amplification of cDNA and MIMIC was performed using 10 μM of the primers FR-MS59-47 and FR-MS59-77, 0.5 μl 20 mM dNTP's, 1×PCR buffer, MgCl and 2.5 units recombinant Taq DNA polymerase (Gibco BRL) and was allowed to proceed for 35 cycles, 1′ 95° C., 1′ 55° C., 2′ 72° C. PCR products were separated on a 2% agarose gel and visualized by staining with ethidium bromide and a UV illuminator.

For the compound `NC1(C(=O)O)CC1` [ACC, 1-aminocyclopropane-1-carboxylic acid], the fold induction at 1000 µM (24 h) turned out to be 10. `O=C(O)c1ccccc1O` [salicylic acid]: for the setting “120 h, 5 mM, leaves sprayed 5 times, harvested after 5 days”, the fold induction at 5000 µM is 1000. In addition, the fold induction at 1000 µM (1 mM, leaves sprayed once, harvested after 24 hours) stood at 1. On to `CC/C=C\C[C@H]1C(=O)CC[C@@H]1CC(=O)O` [jasmonic acid], for which, where the note is “24 h”, the fold induction at 100 µM worked out at 10.
